Structures are written as SMILES.

Common to all, as to format: cell-based
One test has as its target T1, alpha 2C receptor (Homo sapiens, UniProt P18825).
T1 construct: expressed in transfected cells; host or cells: NIH-3T3
T1 sequence (P18825 1-462): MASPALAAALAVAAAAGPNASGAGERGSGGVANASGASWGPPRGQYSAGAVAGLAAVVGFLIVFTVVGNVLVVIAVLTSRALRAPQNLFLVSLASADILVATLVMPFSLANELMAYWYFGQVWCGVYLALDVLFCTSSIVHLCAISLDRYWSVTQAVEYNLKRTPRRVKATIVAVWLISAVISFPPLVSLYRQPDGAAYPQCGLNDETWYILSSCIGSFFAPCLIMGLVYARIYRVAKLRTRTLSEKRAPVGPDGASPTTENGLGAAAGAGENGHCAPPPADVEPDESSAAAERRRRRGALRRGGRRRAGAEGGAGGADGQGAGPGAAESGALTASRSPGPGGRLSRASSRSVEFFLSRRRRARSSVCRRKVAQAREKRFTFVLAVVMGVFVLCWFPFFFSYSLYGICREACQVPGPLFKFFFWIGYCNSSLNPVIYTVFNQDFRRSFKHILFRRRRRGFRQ
Briefly: RSAT assay (Receptor Selection and Amplification Technology), Alpha 2C. Particulars: RSAT. As for the experimental part:
(§1) The RSAT assay measures a receptor-mediated loss of contact inhibition that results in selective proliferation of receptor-containing cells in a mixed population of confluent cells. The increase in cell number is assessed with an appropriate transfected marker gene such as β-galactosidase, the activity of which can be easily measured in a 96-well format. Receptors that activate the G protein, Gq, elicit this response. Alpha 2 receptors, which normally couple to Gi, activate the RSAT response when coexpressed with a hybrid Gq protein that has a Gi receptor recognition domain, called Gq/i5.
(§2) NIH-3T3 cells are plated at a density of 2×10^6 cells in 15 cm dishes and maintained in Dulbecco's modified Eagle's medium supplemented with 10% calf serum. One day later, cells are cotransfected by calcium phosphate precipitation with mammalian expression plasmids encoding p-SV-β-galactosidase (5-10 μg), receptor (1-2 μg) and G protein (1-2 μg). 40 μg salmon sperm DNA may also be included in the transfection mixture. […] Cells are thawed and 100 μl added to 100 μL aliquots of various concentrations of drugs in triplicate in 96-well dishes. Incubations continue 72-96 hr at 37° C. After washing with phosphate-buffered saline, β-galactosidase enzyme activity is determined by adding 200 μL of the chromogenic substrate (consisting of 3.5 mM o-nitrophenyl-β-D-galactopyranoside and 0.5% nonidet P-40 in phosphate buffered saline), incubating overnight at 30° C. and measuring optical density at 420 nm. The absorbance is a measure of enzyme activity, which depends on cell number and reflects a receptor-mediated cell proliferation. The efficacy or intrinsic activity is calculated as a ratio of the maximal effect of the drug to the maximal effect of a standard full agonist for each receptor subtype. Brimonidine, the chemical structure of which is shown below, is used as the standard agonist for the alpha 2B and alpha 2C receptors. […] NA stands for “not active” at concentrations less than 3-10 micromolar.

The target of the next test is T2, alpha 2B receptor (Homo sapiens, UniProt P18089).
T2 construct: expressed in transfected cells; host or cells: NIH-3T3
T2 sequence (P18089 1-450): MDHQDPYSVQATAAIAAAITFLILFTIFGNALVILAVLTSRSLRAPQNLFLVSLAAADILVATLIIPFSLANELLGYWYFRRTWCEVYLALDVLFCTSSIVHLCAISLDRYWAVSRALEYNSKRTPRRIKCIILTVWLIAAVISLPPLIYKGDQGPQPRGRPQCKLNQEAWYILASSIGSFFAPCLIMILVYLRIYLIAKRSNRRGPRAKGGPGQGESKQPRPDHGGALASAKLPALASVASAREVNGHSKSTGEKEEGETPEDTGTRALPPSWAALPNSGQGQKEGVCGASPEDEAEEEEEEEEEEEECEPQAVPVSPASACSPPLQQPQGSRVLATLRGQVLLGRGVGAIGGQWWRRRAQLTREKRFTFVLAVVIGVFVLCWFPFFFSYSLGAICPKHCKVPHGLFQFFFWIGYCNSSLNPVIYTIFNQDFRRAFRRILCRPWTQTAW
In words: RSAT assay (Receptor Selection and Amplification Technology), Alpha 2B. Conditions: RSAT, Table 1. The protocol:
as §1, §2

Another test concerns the target T3, Alpha 1A (Homo sapiens, UniProt P35348).
T3 sequence (P35348 1-466): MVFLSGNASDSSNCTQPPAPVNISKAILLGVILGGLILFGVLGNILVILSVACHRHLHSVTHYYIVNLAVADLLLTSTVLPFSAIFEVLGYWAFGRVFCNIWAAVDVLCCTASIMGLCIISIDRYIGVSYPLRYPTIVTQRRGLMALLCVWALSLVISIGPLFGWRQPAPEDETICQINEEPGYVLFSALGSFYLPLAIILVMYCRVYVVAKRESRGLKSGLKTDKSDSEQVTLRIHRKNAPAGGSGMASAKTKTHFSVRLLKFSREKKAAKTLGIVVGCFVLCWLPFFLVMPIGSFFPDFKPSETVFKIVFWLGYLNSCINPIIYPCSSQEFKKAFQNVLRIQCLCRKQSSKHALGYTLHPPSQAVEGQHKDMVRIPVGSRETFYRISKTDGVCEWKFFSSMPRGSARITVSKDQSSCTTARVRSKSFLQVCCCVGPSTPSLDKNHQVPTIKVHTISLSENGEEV
Briefly: RSAT assay (Receptor Selection and Amplification Technology), Alpha 1A. Particulars: value in parentheses, ratio of maximal effect of drug to maximal effect of standard full agonist. As for the experimental part: as §1, §2

Where [1] appears, read: value in parentheses, ratio of maximal effect to that of brimonidine.

`Cc1cccc(C(Cc2cccnc2)/N=C2/NCCO2)c1C` (centres unmarked) [Compound 21, 1-(2,3-Dimethylphenyl)-N-(oxazolidin-2-ylidene)-2-(pyridin-3-yl)ethanamine]: the EC50 at alpha 2C receptor (transfected NIH-3T3 cells with Gq/i5, NA = not active at concentrations less than 10 micromolar, read-out: potency nM (EC50) Alpha 2C) amounted to 18 nM; at alpha 2B receptor (transfected NIH-3T3 cells with Gq/i5, read-out: potency nM (EC50) Alpha 2B), 5 nM. In addition, on alpha 2C receptor (setting [1]), the “Intrinsic Activity efficacy Alpha 2C” value was determined as 0.4. Besides, the “Intrinsic Activity efficacy Alpha 2B” value at alpha 2B receptor (setting [1]) is reported as 1.2. Further, at Alpha 1A, the “Intrinsic Activity efficacy Alpha 1A” value amounted to 0.6.

For orientation: EC50 means the concentration at which the effect is half-maximal.

(Values after US8362022B2, “Selective subtype alpha 2 adrenergic agents and methods for use thereof” (Allergan, Inc., priority 2008, dated 2013).)
